Tested on: panel of 50 SH2 domains
Assay: SPOT peptide array probed with each of 50 GST-SH2 domains
Type: binding
Details: SPOT192 peptide array; for 2X < SH2 Domains < 3X: list of GST-SH2 domains with spot intensity between 2X and 3X array mean (indeterminate range); for SH2 Domains >3X: list of GST-SH2 domains with spot intensity >3X array mean (array-positive)
Source text: The use of addressable peptide arrays is a reproducible and semi-quantitative approach that has been extensively validated for studying protein interactions with peptide ligands. To investigate connections between SH2 domain proteins and their putative phosphorylated docking sites on cell surface receptors, we developed addressable arrays consisting of 192 phosphotyrosine peptides. This peptide set was assembled using 71 phosphotyrosine peptide motifs corresponding to all of the cytoplasmic tyrosine residues within the FGF receptors (FGFR1-4), insulin receptor (InsR) and IGF-1 receptor (IGF-1R) (Figure 1A). Activation of these receptors results in the phosphorylation of associated scaffold proteins, and so 75 phosphotyrosine peptides corresponding to a comprehensive list of tyrosine residues within insulin receptor substrates (IRS-1 and IRS-2) and fibroblast receptor substrates (FRS-2 and FRS-3) were included. In addition, 33 phosphotyrosine peptides were incorporated from the downstream signaling proteins PLC-γ1, p130Cas (BCAR1) and p62DOK1. […] These control peptides provide a reference and establish the empirical cut-off for designated binding interactions (Table 1). No discrimination was made against peptides on the basis of reported phosphorylation state in order to examine a diverse and unbiased set of motifs. The resulting set of 192 phosphotyrosine peptides and their corresponding position in the proteins of origin is noted in Additional file 1: Table S1. Addressable arrays were synthesized as membrane-bound 11-mer peptides using the SPOT synthesis technique. While the majority of SH2 domains recognize residues C-terminal to the phosphotyrosine in their cognate peptide ligands, additional contacts between SH2 domains and residues N-terminal to the phosphotyrosine are observed for the SH2 domain of Sh2d1a (SAP) and cannot be ruled out in other cases. Peptides were synthesized with six flanking residues C-terminal to the phosphotyrosine and four residues N-terminal to the phosphotyrosine.
To assess the potential network of SH2 domain interactions we selected 50 SH2 domains representing 28 of the 38 families of SH2 domains (Figure 1B) all of which we have previously shown can be expressed and purified. These include a number of extensively studied SH2 domains (Src, Grb2, PLCγ), as well as a number of less studied SH2 domains from proteins such as Shd, She, Shf, Slnk (Sh2d6), Sh2d1a (SAP), Sh2d1b (Eat-2), and Brdg1. To address potential variability in specificity within families we employed all members from the SHB, CRK, GRB2, SRC and ABL families (families are indicated with complete Capitalized lettering).
SH2 domains were arrayed as GST fusion proteins and detected using anti-GST primary antibodies and near-infrared labeled secondary antibodies. In an effort to present a dataset with minimal false positives, we chose an empirical cutoff based on the array average across all peptide spots to classify interactions (Figure 1A). In cases where the intensity of the signal for an individual SH2-domain binding event exceeded the mean intensity of all the peptides on the membrane by three-fold were scored as “array positives” [22]. Non-binding was judged in cases where the intensity of a spot was less than the mean intensity of all spots on the membrane and these were scored as “array negatives”. Peptides with signal intensities between 1X and 3X mean were scored as “indeterminate” and ascribed as neither array positive binding interactions nor array-negative non-binders. […] This signature may be indicative of promiscuity differences between phosphopeptides or there may be a subset of peptides which interact in a nonspecific fashion with either the GST fusion tag or one of the antibodies used for detection, resulting in false positives. […]

| Substance | 2X < SH2 Domains < 3X | SH2 Domains >3X |
| --- | --- | --- |
| GTEEpYMKMDLG [C18] | PI3K1_C |  |
| EYRKpYGGAKLN [B07] | ITK, MIST, PTPN11_C, RIN1, SHF, SHD, SYK_C | BCAR3, BMX, BRDG1, BRK, FER, PLCG2_N, TENC1 |
| DSDQpYVLMSSP [D23] | BLK, FGR, LCK, SH2D1B | FYN, LYN, PI3K1_N, PI3K1_C, SHIP1 |
| LEYCpYNPSHNP [E10] |  | GRB7 |
| NALGpYTVSSFS [G11] | ABL1 | ABL2, CRK, CRKL, GRB7, MATK, SH2D2A |
| PNGDpYLNVSPS [D21] | HCK, PI3K1_N, SH2D1B, SHIP1 | GADS, GRAP, GRB2, GRB7, VAV1 |
| MDGGpYLDQPDN [B04] | BLK, HCK, LCK | FGR, FYN, LYN, SH2D1B, SHC1, SHIP1, SRC, YES |
| TKDEpYFAVAAE [D04] | SH2D1B |  |
| DGPLpYVIVEYA [E06] | SHD, TENC1 | ITK, MIST, RASA1_N, SHB, SHF, SHE, SYK_C |
| RRYGpYDSNLFS [F23] | PLCG2_N, PTPN11_C, SH2D2A, SHF | ABL1, BCAR3, BMX, BRDG1, CRK, CRKL, FER, MATK, SHB, SHD, TENC1 |
| SQVNpYRVPNMR [G16] | BMX, CRKL, PLCG2_C | BCAR3, BRDG1, MIST, PLCG2_N, SHF, TENC1 |
| PMHNpYVNTENV [G07] | PI3K1_C, VAV1 | GADS, GRAP, GRB2, SH3BP2 |
| ADNDpYIIPLPD [A07] | HCK, LCK, LYN, PI3K1_N, RIN1, SH2D1B, YES | BRK, DAPP1, PLCG2_N, PLCG2_C, SRC, VAV1 |
| EFYGpYMTMDRP [D11] |  | PI3K1_C |
| VLSYpYSLPRSF [C13] | BRDG1, PLCG2_C, PTPN11_C, SHB | CRK, CRKL, Sh2b, SH2D2A, SHF, SYK_C |
| NGILpYLEDPVN [G22] |  | Sh2b, SHB, SHF, SYK_C |

| Substance | 2X < SH2 Domains < 3X | SH2 Domains >3X |
| --- | --- | --- |
| RGMQpYLESRKA [F15] | BMX, ITK, MIST, PLCG2_N, PLCG2_C, SHF | BCAR3, BRDG1, TENC1 |
| EDYDpYVHLQGK [H13] | BLK, SH2D1B, SHC1 | FYN, LCK, LYN, MIST |
| HHIDpYYKKTTN [E13] | DAPP1, ITK, MATK, PI3K1_N, PTPN11_N, RIN1, SH3BP2, SHD, SHE, SHIP1, SYK_C | BCAR3, BMX, BRDG1, FER, MIST, PLCG2_N, PTPN11_C, SHB, SHF, TENC1 |
| TNEEpYLDLSQP [F02] | BLK, FYN, SH2D1B, SRC, ZAP70_N |  |
| HHIDpYYKKTSN [F16] | DAPP1, ITK, MATK, MIST, PI3K1_N, PLCG2_C, PTPN11_N, RIN1, SH3BP2, SHB, SHD, SHIP1 | BCAR3, BMX, BRDG1, FER, PLCG2_N, PTPN11_C, SHF, TENC1 |
| PGMEpYSYDINR [E21] | LCK, RASA1_N | BRDG1, GRB7 |
| DPMPpYEPALPQ [F05] | FGR, LCK, SH2D1B, SHC1 | FYN, LYN, SHIP1, YES |
| VKWHpYLALRRY [F21] | FGR, ITK, RASA1_C, SH2D2A, SHE, SYK_C | BCAR3, BMX, BRDG1, BRK, DAPP1, FER, GRB2, MATK, MIST, PI3K1_N, PI3K1_C, PLCG2_N, PLCG2_C, PTPN11_N, PTPN11_C, RIN1, Sh2b, SH3BP2, SHB, SHF, SHD, TENC1 |
| TEPTpYFYVTDY [A14] | MATK, PLCG2_N, SH2D1B, SYK_C | BRK, ITK, RASA1_N |
| MCWQpYNPKMRP [B14] | ITK, MATK, PLCG2_N, PLCG2_C, PTPN11_C, SHB, SHF, SHD, SYK_C | BCAR3, BMX, BRDG1, FER, MIST, TENC1 |
| PTYFpYVTDYLD [A15] | DAPP1, RIN1, SH2D1B, TENC1 | BCAR3, BRK, ITK, MATK, PLCG2_N, PLCG2_C, RASA1_N, SH2D2A, SLNK, SYK_C, VAV1 |
| AEPDpYGALYEG [H01] | BLK, BMX, LCK | FGR, FYN, HCK, LYN, SH2D1B, SHC1, SHIP1, SLNK, SRC, YES, ZAP70_N |
| VSCApYQVARGM [E11] | CRK, ITK, MIST, PLCG2_N, SHB, SHF | BRDG1 |
| YWDLpYEHAQQQ [H18] | CRKL | ABL1, BCAR3, BMX, FER, ITK, MATK, RASA1_N, RASA1_C, SH3BP2, SHB, TENC1 |
| LPNGpYPRYPSF [F24] | BCAR3, BMX, PLCG2_N, PLCG2_C, SHD, SYK_C, TENC1 | BRDG1, GRAP, GRB2, MIST, PTPN11_C, Sh2b, SHB, SHF |
| TFGPpYSPSGGD [F19] | ZAP70_N |  |

Reference: publication PMC3514216, “SRC Homology 2 Domain Binding Sites in Insulin, IGF-1 and FGF receptor mediated signaling networks reveal an extensive potential interactome” (Cell Communication and Signaling : CCS, 2012)
